Legend:
Format in all cases: cell-based, human
[1] = system: p21 protein (CIP1/CDKN1A) expression in HUVEC; test: Total p21 protein ELISA in cell lysates, normal cells; details: 24 h
Description: (§1) After incubation, cells were washed twice with ice-cold PBS, scraped, pelleted and lysed in RIPA buffer (Pierce) supplemented with protease inhibitor cocktail (Roche) and phosphatase inhibitor (Roche) for 30 min on ice. The lysates were transfered into microcentrifuge tubes and centrifuged at 14,000× g for 5 min at 4 °C followed by sonication (10–15 s × 3). The supernatants were collected into clean microcentrifuge tubes and stored at −80 °C. Lysates protein concentration were quantified by BCA protein assay kit (Thermo Scientific) and aliquots of 50 μg of total cell lysate were used for ELISA assay.
(§2) DuoSetR IC ELISA-Human Total p21/CIP1/CDKN1A(: DYC1047-2) was purchased from R&D Systems Inc. and contains the basic components required for the development of sandwich ELISAs to measure human p21 protein also known as CIP1 and CDKN1A in cell lysates. An immobilized capture antibody specifically binds human p21. After washing away unbound material, a biotinylated detection antibody specific for human p21 is used to detect the captured protein, utilizing a standard Streptavidin-HRP format. All experiments were performed in triplicates and absorbance was measured at λ = 450 nm using a Dynex plate reader.
(§3) In cancer development and evolution p21 protein might acts as an oncogene or tumor suppressor and for this reason it could be an important player in processes such as the cancer aggressiveness or the response to chemotherapy. In this study, using ELISA assay we analyzed the expression level of p21 in the tumor cells (PE-CA/PJ49) compared to a normal cells (HUVEC).

PE/CA-PJ49 tumor cells [2] = test: Cell cycle phase distribution by PI flow cytometry, tumor cells; details: 24 h, CisPt 20 μM
Description: (§4) For analysis of cell-cycle distribution, the cells were collected after treatment, fixed with 70% ethanol for at least one hour at 4 °C. The cells were stained with propidium iodide (PI) an agent which intercalates into the major groove of double-stranded DNA and produces a highly fluorescent adduct that can be excited at 488 nm with a broad emission around 600 nm. Since PI can also bind to double-stranded RNA, it is necessary to treat the cells with RNase for optimal DNA resolution. Cells (1×10^6 cells/mL) were washed in PBS and centrifuge at 300× g, 5 min at 4 °C. The pellet of the cells were incubated for 10 min at 37 °C with 0.5 mg/sample RNase A and then was added 10 μg/sample of PI staining solution to cell pellet, mix well and incubated 10 min at 37 °C. The samples stored at 4 °C until analyzed by flow cytometry. A minimum of 20,000 events for each sample were collected using a FACS CantoII flow cytometer and ModFIT software (BectonDickinson) and used to determine the cell cycle phase distribution after debris exclusion.
(§5) The progression through the cell cycle phases induced by treatment were evaluated by flow cytometry using a FACSCanto II flow cytometer. Data analysis were performed using the ModFit 3.2 program which offers the possibility of evaluating the cell cycle phases distribution (G0/G1, S, G2 + M).

HUVEC normal cells [3] = test: Cell cycle phase distribution by PI flow cytometry, normal cells; details: 24 h
Description: as §4, §5

PE/CA-PJ49 tumor cells [4] = test: MTT drug sensitivity (viability) assay, tumor cells; details: PE/CA-PJ49, 24 h
Description: (§6) The MTT assay is based on the ability of viable cells to reduce the reagent 3-(4,5-dimethylthiazol-2-yl)-2,5-diphenyltetrazolium bromide to colored formazan compounds [48]. Because the transformation is only possible in viable cells, the amount of blue formazan is proportional to the number of viable cells and thus, a linear dependence exists between cell activity and absorbance. Cells were seeded in triplicate in 96-well plates at a density of 5000 cells/well, incubated at 37 °C for 24 h. […] After the incubation period, 20 μL MTT (5 mg/mL in PBS) was added and further incubated for 4 h. The supernatant was removed, and the formazan product was analyzed spectrophotometrically (570 nm) after dissolution in DMSO. Wells without cells serve as a blank, and their absorbance was subtracted from the other results. Untreated cells were used as control and their viability was assumed as 100%. Results were expressed as mean values of three determinations ± standard deviation (SD). Data are presented as percent of cell viability and compared to untreated [Viability% = (T − B)/(U − B) × 100, {where T = absorbance of treated cells; U = absorbance of untreated cells, B = absorbance of blank}]. Once percent viability was obtained, the drug response curve was generated, and inhibitory concentration (IC50 and IC25) was calculated using GraphPad Prism version 5.01 [49].
(§7) SI values of more than 2 were considered as indicative of high selectivity.
(§8) The anticancer cytotoxic activity in vitro was evaluated by the MTT assay. […] The most widely used and informative measure of a drug’s efficacy is IC50-the half-maximal inhibitory concentration. IC50 was determined at half of the difference between the maximum (plateau) and minimum absorbance values, by plotting the absorbance value at 570 nm (Y axis) versus the concentration of the compound analysed (X axis). The IC50 values were reported as a mean of three independent experiments ± standard deviation (S.D.).

HUVEC normal cells [5] = test: Annexin V-FITC/PI apoptosis flow cytometry, normal cells; details: 24 h; for Apoptoza Tarzie = Q2 (%): late apoptosis; for Apoptoza Totală = Q2+Q4 (%): total apoptosis
Description: (§9) The apoptosis assay was carried out with the Annexin V-FITC kit using the manufacturer’s (BD Pharmingen) protocol. Treated and untreated 1 × 10^6 cells/mL were resuspended in cold binding buffer and staining simultaneously with 5 μL FITC-Annexin V (green fluorescence) and 5 μL propidium iodide (PI) in the dark, at room temperature for 15 min. Then, 400μL of Annexin V binding buffer was added and 10,000 cells/sample were acquired using a BD Canto II flow cytometer. The analysis was performed using DIVA 6.2 software in order to discriminate viable cells (FITC^−PI^−) from necrotic cells […] and early apoptosis (FITC^+PI^−) from late apoptosis.
(§10) Apoptosis can be seen as an efficient method of preventing malignant transformation, as it ensures the removal of cells which present with genetic alterations. Deficient apoptosis can promote the development of cancer, both through the accumulation of cells found during division and the blocking of the removal of cells with high malignant potential genetic variations. The factors which determine the cells to follow one of three possible pathways are not yet known – the start of apoptosis after cellular injury, the repair of the lesion or the continuation of the cellular cycle. Many therapeutical agents have anti-tumoral effects generated by their capacity to activate the apoptotic process. […] The flow cytometric analysis was performed using DIVA 6.2 software and allowed to discriminate viable cells (FITC^−PI^− = Q3) from necrotic cells (FITC^−PI^+ = Q1) and early apoptosis (FITC^+PI^− = Q4) from late apoptosis (FITC^+PI^+ = Q2).

PE/CA-PJ49 tumor cells [6] = test: Annexin V-FITC/PI apoptosis flow cytometry, tumor cells; details: 24 h
Description: as §9, §10

[7] = system: p21 protein (CIP1/CDKN1A) expression in PE/CA-PJ49; test: Total p21 protein ELISA in cell lysates, tumor cells; details: 24 h
Description: as §1, §2, §3

HUVEC normal cells [8] = test: MTT drug sensitivity (viability) assay, normal cells; details: 24 h
Description: as §6, §7, §8

N.N.[Cl][Pt][Cl] [CisPt, cis-diamminedichloroplatinum]
p21 pg/mL HUVEC ([1]; 5 μM CisPt): 238 pg/mL
p21 pg/mL HUVEC ([1]; 20 μM CisPt): 195 pg/mL
G2/M% (PE/CA-PJ49 tumor cells [2]): 27.5%
synthesis phase (S) (HUVEC normal cells [3]; 5 μM CisPt): 29.2%
S% (HUVEC normal cells [3]; CisPt 20 μM): 39.65%
cell viability (MTT) (PE/CA-PJ49 tumor cells [4]; CisPt 5 μM vs untreated cells): significantly affected
cell viability (MTT) (PE/CA-PJ49 tumor cells [4]; CisPt 20 μM vs untreated cells): significantly affected
IC 25 (PE/CA-PJ49 tumor cells [4]; MTT): 3.95 ± 1.2 µM
IC50 (PE/CA-PJ49 tumor cells [4]; MTT): 9.72 ± 1.7 µM
Early Apoptosis = Q4 (%) (HUVEC normal cells [5]; 5 μM CisPt): 5.6%
Necrosis = Q1 (%) (HUVEC normal cells [5]; 5 μM CisPt): 1.6%
Early Apoptosis = Q4 (%) (HUVEC normal cells [5]; 20 μM CisPt): 7.7%
Necrosis = Q1 (%) (HUVEC normal cells [5]; 20 μM CisPt): 1.5%
Apoptoza Tarzie = Q2 (%) (HUVEC normal cells [5]; 5 μM CisPt): 0.5%
Apoptoza Tarzie = Q2 (%) (HUVEC normal cells [5]; 20 μM CisPt): 0.5%
Apoptoza Totală = Q2+Q4 (%) (HUVEC normal cells [5]; 5 μM CisPt): 6.1%
Apoptoza Totală = Q2+Q4 (%) (HUVEC normal cells [5]; 20 μM CisPt): 8.2%
Early Apoptosis = Q4 (%) (PE/CA-PJ49 tumor cells [6]; 5 μM CisPt): 11.3%
Late Apoptosis = Q2 (%) (PE/CA-PJ49 tumor cells [6]; 5 μM CisPt): 1.2%
Necrosis = Q1 (%) (PE/CA-PJ49 tumor cells [6]; 5 μM CisPt): 2.1%
Total Apoptosis = Q2 + Q4 (%) (PE/CA-PJ49 tumor cells [6]; 5 μM CisPt): 12.5%
Early Apoptosis = Q4 (%) (PE/CA-PJ49 tumor cells [6]; 20 μM CisPt): 15.3%
Late Apoptosis = Q2 (%) (PE/CA-PJ49 tumor cells [6]; 20 μM CisPt): 2.1%
Necrosis = Q1 (%) (PE/CA-PJ49 tumor cells [6]; 20 μM CisPt): 1.4%
Total Apoptosis = Q2 + Q4 (%) (PE/CA-PJ49 tumor cells [6]; 20 μM CisPt): 17.4%
p21 pg/mL PE/CA-PJ49 ([7]; 5 μM CisPt): 1157 pg/mL
p21 pg/mL PE/CA-PJ49 ([7]; 20 μM CisPt): 915 pg/mL
cell viability (MTT) (HUVEC normal cells [8]; CisPt 5 μM vs untreated cells): significantly reduced
cell viability (MTT) (HUVEC normal cells [8]; CisPt 20 μM vs untreated cells): significantly reduced
IC 25 (HUVEC normal cells [8]; MTT): 5.82 ± 1.1 µM
IC50 (HUVEC normal cells [8]; MTT): 20.9 ± 2.1 µM

From PMC7551591, “The Effect of Resveratrol or Curcumin on Head and Neck Cancer Cells Sensitivity to the Cytotoxic Effects of Cisplatin” (Nutrients, 2020)
